Measured values published in PubChem BioAssay AID1259407 (Chemical Carcinogenesis Research Information System (CCRIS), 2018).
Active and inactive are the calls of the source. How the calls were made is not given here.

Test system: CCRIS mutagenicity, Ames/micronucleus/aberration tests
Test: CCRIS mutagenicity studies
[1] = Test System: AMES SALMONELLA TYPHIMURIUM, Strain/Indicator: TA98, Metabolic Activation: NONE, Method: PREINCUBATION
[2] = Test System: AMES SALMONELLA TYPHIMURIUM, Strain/Indicator: TA100, Metabolic Activation: NONE, Method: PREINCUBATION
[3] = Test System: AMES SALMONELLA TYPHIMURIUM, Strain/Indicator: TA98, Metabolic Activation: NONE, Method: STANDARD PLATE
[4] = Test System: AMES SALMONELLA TYPHIMURIUM, Strain/Indicator: TA100, Metabolic Activation: NONE, Method: STANDARD PLATE
[5] = Test System: AMES SALMONELLA TYPHIMURIUM, Strain/Indicator: TA1535, Metabolic Activation: NONE, Method: STANDARD PLATE
[6] = Test System: AMES SALMONELLA TYPHIMURIUM, Strain/Indicator: TA1537, Metabolic Activation: NONE, Method: STANDARD PLATE

Measured: mutagenic call

Cc1ccc(N=C=O)cc1N=C=O
active: Test System: AMES SALMONELLA TYPHIMURIUM, Strain/Indicator: TA98, Metabolic Activation: HAMSTER, LIVER, S-9, AROCLOR 1254 (10%), Method: PREINCUBATION active; positive | Test System: AMES SALMONELLA TYPHIMURIUM, Strain/Indicator: TA98, Metabolic Activation: RAT LIVER S-9, AROCLOR 1254 (10 OR 30%), Method: STANDARD PLATE active; positive | Test System: AMES SALMONELLA TYPHIMURIUM, Strain/Indicator: TA98, Metabolic Activation: RAT, LIVER, S-9, AROCLOR 1254 (10%), Method: PREINCUBATION active; positive | Test System: AMES SALMONELLA TYPHIMURIUM, Strain/Indicator: TA100, Metabolic Activation: HAMSTER, LIVER, S-9, AROCLOR 1254 (10%), Method: PREINCUBATION active; positive | Test System: AMES SALMONELLA TYPHIMURIUM, Strain/Indicator: TA100, Metabolic Activation: RAT, LIVER, S-9, AROCLOR 1254 (10%), Method: PREINCUBATION active; positive | Test System: AMES SALMONELLA TYPHIMURIUM, Strain/Indicator: TA1537, Metabolic Activation: RAT LIVER S-9, AROCLOR 1254 (10 OR 30%), Method: STANDARD PLATE active; positive | Test System: MOUSE LYMPHOMA, Strain/Indicator: L5178Y (TK+/TK-), Metabolic Activation: NONE, Method: SUSPENSION/PLATE active; positive | Test System: MOUSE LYMPHOMA, Strain/Indicator: L5178Y (TK+/TK-), Metabolic Activation: RAT, LIVER, S-9, AROCLOR 1254, Method: SUSPENSION/PLATE active; positive
inactive: End Point: IN VITRO CHROMOSOMAL ABERRATIONS, Test System: CHL CELLS, Metabolic Activation: RAT, LIVER, S-9, SODIUM PHENOBARBITAL AND 5,6-BENZOFLAVONE inactive; negative; authors report equivocal results for ploidy changes at the highest dos | End Point: IN VITRO CHROMOSOMAL ABERRATIONS, Test System: CHO CELLS, Metabolic Activation: RAT, LIVER, S-9, AROCLOR 1254 inactive; negative; precipitation occurred at 500 and 750 ug/ml | Test System: AMES SALMONELLA TYPHIMURIUM, Strain/Indicator: TA97, Metabolic Activation: HAMSTER, LIVER, S-9, AROCLOR 1254 (10%), Method: PREINCUBATION inactive; negative | Test System: AMES SALMONELLA TYPHIMURIUM, Strain/Indicator: TA97, Metabolic Activation: NONE, Method: PREINCUBATION inactive; negative | Test System: AMES SALMONELLA TYPHIMURIUM, Strain/Indicator: TA97, Metabolic Activation: RAT, LIVER, S-9, AROCLOR 1254 (10%), Method: PREINCUBATION inactive; negative | [1] inactive; negative | Test System: AMES SALMONELLA TYPHIMURIUM, Strain/Indicator: TA98, Metabolic Activation: RAT LIVER S-9, PHENOBARBITAL AND BETA-NAPHTHOFLAVONE, Method: PREINCUBATION inactive; negative | [2] inactive; negative | Test System: AMES SALMONELLA TYPHIMURIUM, Strain/Indicator: TA1535, Metabolic Activation: HAMSTER, LIVER, S-9, AROCLOR 1254 (10%), Method: PREINCUBATION inactive; negative | Test System: AMES SALMONELLA TYPHIMURIUM, Strain/Indicator: TA1535, Metabolic Activation: NONE, Method: PREINCUBATION inactive; negative | Test System: AMES SALMONELLA TYPHIMURIUM, Strain/Indicator: TA1535, Metabolic Activation: RAT LIVER S-9, PHENOBARBITAL AND BETA-NAPHTHOFLAVONE, Method: PREINCUBATION inactive; negative | Test System: AMES SALMONELLA TYPHIMURIUM, Strain/Indicator: TA1535, Metabolic Activation: RAT, LIVER, S-9, AROCLOR 1254 (10%), Method: PREINCUBATION inactive; negative | Test System: AMES SALMONELLA TYPHIMURIUM, Strain/Indicator: TA1537, Metabolic Activation: NONE, Method: PREINCUBATION inactive; negative | Test System: AMES SALMONELLA TYPHIMURIUM, Strain/Indicator: TA1537, Metabolic Activation: RAT LIVER S-9, PHENOBARBITAL AND BETA-NAPHTHOFLAVONE, Method: PREINCUBATION inactive; negative | Test System: E.COLI, Strain/Indicator: WP2UVRA, Metabolic Activation: NONE, Method: PREINCUBATION inactive; negative | Test System: E.COLI, Strain/Indicator: WP2UVRA, Metabolic Activation: RAT LIVER S-9, PHENOBARBITAL AND BETA-NAPHTHOFLAVONE, Method: PREINCUBATION inactive; negative

CCOC(=O)[C@H]1O[C@@H]1C(=O)N[C@@H](CC(C)C)C(=O)NCCC(C)C
inactive: [1] inactive; negative | [3] inactive; negative | Test System: AMES SALMONELLA TYPHIMURIUM, Strain/Indicator: TA98, Metabolic Activation: RAT, LIVER, S-9, Method: PREINCUBATION inactive; negative | Test System: AMES SALMONELLA TYPHIMURIUM, Strain/Indicator: TA98, Metabolic Activation: RAT, LIVER, S-9, Method: STANDARD PLATE inactive; negative | [2] inactive; negative | [4] inactive; negative | Test System: AMES SALMONELLA TYPHIMURIUM, Strain/Indicator: TA100, Metabolic Activation: RAT, LIVER, S-9, Method: PREINCUBATION inactive; negative | Test System: AMES SALMONELLA TYPHIMURIUM, Strain/Indicator: TA100, Metabolic Activation: RAT, LIVER, S-9, Method: STANDARD PLATE inactive; negative | [5] inactive; negative | Test System: AMES SALMONELLA TYPHIMURIUM, Strain/Indicator: TA1535, Metabolic Activation: RAT, LIVER, S-9, Method: STANDARD PLATE inactive; negative | [6] inactive; negative | Test System: AMES SALMONELLA TYPHIMURIUM, Strain/Indicator: TA1537, Metabolic Activation: RAT, LIVER, S-9, Method: STANDARD PLATE inactive; negative | Test System: E. COLI, Strain/Indicator: WP2 UVRA, Metabolic Activation: NONE, Method: STANDARD PLATE inactive; negative | Test System: E. COLI, Strain/Indicator: WP2 UVRA, Metabolic Activation: RAT, LIVER, S-9, Method: STANDARD PLATE inactive; negative

O=S(=O)(O)O.[NH-]CC1(C[NH-])CCCCC1.[Pt+2]
active: Test System: CHINESE HAMSTER, Strain/Indicator: V-79/6-THIOGUANINE (HGPRT), Metabolic Activation: NONE, Method: STANDARD PLATE active; positive

CN(C(=O)CCCCl)c1snc2ccccc12
inactive: [3] inactive; negative | Test System: AMES SALMONELLA TYPHIMURIUM, Strain/Indicator: TA98, Metabolic Activation: S-9, Method: STANDARD PLATE inactive; negative | [4] inactive; negative | Test System: AMES SALMONELLA TYPHIMURIUM, Strain/Indicator: TA100, Metabolic Activation: S-9, Method: STANDARD PLATE inactive; negative | [5] inactive; negative | Test System: AMES SALMONELLA TYPHIMURIUM, Strain/Indicator: TA1535, Metabolic Activation: S-9, Method: STANDARD PLATE inactive; negative | [6] inactive; negative | Test System: AMES SALMONELLA TYPHIMURIUM, Strain/Indicator: TA1537, Metabolic Activation: S-9, Method: STANDARD PLATE inactive; negative

COc1ccc2c(c1)C(=O)c1nccc3cc(OC)c(OC)c-2c13
active: Test System: AMES SALMONELLA TYPHIMURIUM, Strain/Indicator: TA100, Metabolic Activation: RAT, LIVER, S-9, PHENOBARBITAL AND BETA-NAPHTHOFLAVONE, Method: PREINCUBATION active; positive

O=C(Cl)OCC1c2ccccc2-c2ccccc21
active: Test System: AMES SALMONELLA TYPHIMURIUM, Strain/Indicator: TA1537, Metabolic Activation: RAT, LIVER, S-9, AROCLOR 1254, Method: STANDARD PLATE active; positive
inactive: [3] inactive; negative | Test System: AMES SALMONELLA TYPHIMURIUM, Strain/Indicator: TA98, Metabolic Activation: RAT, LIVER, S-9, AROCLOR 1254, Method: STANDARD PLATE inactive; negative | [4] inactive; negative | Test System: AMES SALMONELLA TYPHIMURIUM, Strain/Indicator: TA100, Metabolic Activation: RAT, LIVER, S-9, AROCLOR 1254, Method: STANDARD PLATE inactive; negative | [5] inactive; negative | Test System: AMES SALMONELLA TYPHIMURIUM, Strain/Indicator: TA1535, Metabolic Activation: RAT, LIVER, S-9, AROCLOR 1254, Method: STANDARD PLATE inactive; negative | [6] inactive; negative

Nc1cc(Cl)cc(Cl)c1O
inactive: [1] inactive; negative | [3] inactive; negative | [2] inactive; negative | [4] inactive; negative | Test System: CHINESE HAMSTER V-79, Strain/Indicator: V-79/6-THIOGUANINE, Metabolic Activation: NONE inactive; negative
